Test results published in patent publication US20240228502A1, “2-PHENYLAMINO PYRROLOPYRIMIDINES AS ACK1 INHIBITORS” (H. LEE MOFFITT CANCER CENTER AND RESEARCH INSTITUTE, INC., priority 2021, published 2024).
pEC50, pIC50: −log10 of the molar value.

Columns and labels:
ACK1 [1] = target: T1, ACK1 (Homo sapiens, UniProt Q07912); experiment: ACK1 inhibition (ACK1 IC50); format: biochemical
UKE1 = experiment: Cell viability, UKE1; format: cell-based
MDA-MB-231 = experiment: Cell viability, MDA-MB-231; format: cell-based
ACK1 [2] = target: T1, ACK1; experiment: DSF = Differential Scanning Fluorimetry, thermal shift; format: binding
[3] = Homo sapiens, MDA-MB-231, MDA-MB-231

T1 sequence (Q07912 whole entry): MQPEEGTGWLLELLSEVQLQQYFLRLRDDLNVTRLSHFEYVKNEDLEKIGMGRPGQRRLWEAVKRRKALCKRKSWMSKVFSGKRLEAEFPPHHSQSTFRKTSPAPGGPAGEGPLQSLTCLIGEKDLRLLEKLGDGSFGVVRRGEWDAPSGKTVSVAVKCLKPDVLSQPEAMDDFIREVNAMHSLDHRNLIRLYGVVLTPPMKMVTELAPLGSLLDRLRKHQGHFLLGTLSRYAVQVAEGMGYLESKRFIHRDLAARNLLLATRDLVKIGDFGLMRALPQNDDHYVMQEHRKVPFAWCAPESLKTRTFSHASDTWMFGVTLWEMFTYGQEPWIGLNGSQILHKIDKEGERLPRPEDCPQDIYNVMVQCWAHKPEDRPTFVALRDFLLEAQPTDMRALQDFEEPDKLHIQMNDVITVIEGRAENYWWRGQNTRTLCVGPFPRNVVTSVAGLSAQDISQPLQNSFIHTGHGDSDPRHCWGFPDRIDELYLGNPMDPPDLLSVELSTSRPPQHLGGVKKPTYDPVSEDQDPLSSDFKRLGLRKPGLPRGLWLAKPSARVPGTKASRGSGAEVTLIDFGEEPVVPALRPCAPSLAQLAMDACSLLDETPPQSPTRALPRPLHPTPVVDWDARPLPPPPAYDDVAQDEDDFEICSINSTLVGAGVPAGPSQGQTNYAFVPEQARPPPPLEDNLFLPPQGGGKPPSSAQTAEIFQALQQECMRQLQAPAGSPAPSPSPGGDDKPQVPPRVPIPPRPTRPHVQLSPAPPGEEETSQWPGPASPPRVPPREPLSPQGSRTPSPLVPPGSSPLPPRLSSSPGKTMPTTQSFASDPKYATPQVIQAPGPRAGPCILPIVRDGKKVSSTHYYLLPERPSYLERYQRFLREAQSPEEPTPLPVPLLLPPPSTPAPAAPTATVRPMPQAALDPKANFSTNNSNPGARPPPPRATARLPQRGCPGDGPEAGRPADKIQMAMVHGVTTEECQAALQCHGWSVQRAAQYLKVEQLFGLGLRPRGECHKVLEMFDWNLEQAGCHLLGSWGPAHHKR

SMILES | pIC50 (ACK1 [1]) | DSF (ΔTm (° C.)) (ACK1 [2]) [°C] | also measured
CN1CCN(c2ccc(Nc3ncc4ccn(CC5CCOCC5)c4n3)cc2)CC1 | > 6.60 |  | 
CN1CCN(c2cccc(Nc3ncc4ccn(CC5CCOCC5)c4n3)c2)CC1 | > 6.30 |  | 
COc1cc(N2CCN(C)CC2)ccc1Nc1ncc2ccn(CC3CCOCC3)c2n1 | > 6.60 |  | 
Cc1cn(CC2CCCO2)c2nc(Nc3ccc(N4CCN(C)CC4)cc3)ncc12 (stereo not drawn) | > 6.60 |  | 
CN1CCN(c2ccc(Nc3ncc4ccn(CC5CCCO5)c4n3)cc2)CC1 (stereo not drawn) | > 6.60 |  | 
CN1CCN(c2cccc(Nc3ncc4ccn(CC5CCCO5)c4n3)c2)CC1 (stereo not drawn) | > 6.60 |  | 
COc1cc(N2CCN(C)CC2)ccc1Nc1ncc2ccn(CC3CCCO3)c2n1 (stereo not drawn) | > 6.60 |  | 
COc1cc(N2CCN(C)CC2)ccc1Nc1ncc2c(F)cn(CC3CCCO3)c2n1 (stereo not drawn) | > 6.60 |  | 
CC(C)Oc1cc(Nc2ncc3c(F)cn(CC4CCCO4)c3n2)ccc1C1CCN(C)CC1 (stereo not drawn) | > 6.60 |  | 
CC(C)Oc1cc(Nc2ncc3ccn(CC4CCOCC4)c3n2)ccc1N1CCN(C)CC1 | > 6.60 |  | pEC50 (UKE1; UKE1, UKE1): 5.51; pEC50 (MDA-MB-231; [3]): 5.46
CN1CCN(c2ccc(Nc3ncc4ccn(CC5CCOCC5)c4n3)c(OC3CCC3)c2)CC1 | > 6.60 |  | 
Cn1cc(-c2ccc(Nc3ncc4ccn(CC5CCOCC5)c4n3)cc2)cn1 | > 6.60 |  | 
CC(C)Oc1cc(Nc2ncc3ccn(CC4CCCO4)c3n2)ccc1N1CCN(C)CC1 (stereo not drawn) | > 6.60 |  | pEC50 (UKE1; UKE1, UKE1): 5.96; pEC50 (MDA-MB-231; [3]): 5.70
CN1CCN(c2ccc(Nc3ncc4ccn(CC5CCCO5)c4n3)c(OC3CCC3)c2)CC1 (stereo not drawn) | > 6.60 |  | 
Cn1cc(-c2ccc(Nc3ncc4ccn(CC5CCCO5)c4n3)cc2)cn1 (stereo not drawn) | > 6.60 |  | 
COc1cc(Nc2ncc3ccn(CC4CCCO4)c3n2)ccc1-c1cnn(C)c1 (stereo not drawn) | > 6.60 |  | 
Cc1cn(CC2CCCO2)c2nc(Nc3ccc(N4CCN(C)CC4)c(OC(C)C)c3)ncc12 (stereo not drawn) | > 6.60 |  | 
Cc1cn(CC2CCCO2)c2nc(Nc3ccc(-c4cnn(C)c4)c(OC(C)C)c3)ncc12 (stereo not drawn) | > 6.30 | 2.1 | 
Cc1cn(CC2CCOCC2)c2nc(Nc3ccc(N4CCN(C)CC4)c(OC(C)C)c3)ncc12 | > 6.60 |  | 
Cc1cn(CC2CCOCC2)c2nc(Nc3ccc(-c4cnn(C)c4)c(OC(C)C)c3)ncc12 | > 6.60 |  | 
COc1cc(Nc2ncc3c(C)cn(CC4CCOCC4)c3n2)ccc1-c1cnn(C)c1 | > 6.60 |  | 
CN1CCN(c2ccc(Nc3ncc4ccn(CC5CCCO5)c4n3)cc2OCCO)CC1 (stereo not drawn) | > 6.60 | 5.3 | pEC50 (UKE1; UKE1): 6.15; pEC50 (UKE1; UKE1, UKE1): 5.89; pEC50 (MDA-MB-231; [3]): 6.14; pEC50 (MDA-MB-231; MDA-MB-231): 5.89

SMILES | pIC50 (ACK1 [1]) | DSF (ΔTm (° C.)) (ACK1 [2]) [°C] | also measured
CC(C)COc1cc(Nc2ncc3ccn(CC4CCCO4)c3n2)ccc1N1CCN(C)CC1 (stereo not drawn) | > 6.60 |  | 
CN1CCN(c2ccc(Nc3ncc4ccn(CC5CCCO5)c4n3)cc2OC2CCCC2)CC1 (stereo not drawn) | > 6.60 |  | pEC50 (UKE1; UKE1, UKE1): 5.68; pEC50 (MDA-MB-231; [3]): 5.68; pEC50 (MDA-MB-231; MDA-MB-231): 5.98
CN1CCN(c2ccc(Nc3ncc4ccn(CC5CCCO5)c4n3)cc2OC2CCC2)CC1 (stereo not drawn) | > 6.60 |  | pEC50 (UKE1; UKE1): 5.82; pEC50 (UKE1; UKE1, UKE1): 5.76; pEC50 (MDA-MB-231; [3]): 5.82; pEC50 (MDA-MB-231; MDA-MB-231): 5.77
CC(C)Oc1cc(Nc2ncc3ccn(CCc4ccccc4)c3n2)ccc1N1CCN(C)CC1 | > 6.60 | 4.5 | pEC50 (UKE1; UKE1, UKE1): 5.74; pEC50 (MDA-MB-231; [3]): 5.47
CC(C)Oc1cc(Nc2ncc3ccn(CCc4ccccc4)c3n2)ccc1-c1cnn(C)c1 | > 6.12 |  | 
CC(C)Oc1cc(Nc2ncc3ccn(-c4cccc(NS(=O)(=O)C(C)C)c4)c3n2)ccc1N1CCN(C)CC1 | > 6.60 | 5.2 | pEC50 (UKE1; UKE1, UKE1): 6.51; pEC50 (MDA-MB-231; [3]): 6.79
COc1cc(Nc2ncc3ccn(-c4cccc(NS(=O)(=O)C(C)C)c4)c3n2)ccc1N1CCN(C)CC1 | > 6.60 | 6.4 | pEC50 (UKE1; UKE1, UKE1): 6.96; pEC50 (MDA-MB-231; [3]): 6.64
CC(C)S(=O)(=O)Nc1cccc(-n2ccc3cnc(Nc4ccc(N5CCN(C)CC5)c(OCCO)c4)nc32)c1 | > 6.60 | 6.4 | pEC50 (UKE1; UKE1, UKE1): 6.41; pEC50 (MDA-MB-231; [3]): 6.82
CC(C)Oc1cc(Nc2ncc3ccn(-c4cccc(NS(=O)(=O)C(C)C)c4)c3n2)ccc1-c1cnn(C)c1 | > 6.60 |  | 
COc1cc(Nc2ncc3ccn(-c4cccc(NS(=O)(=O)C(C)C)c4)c3n2)ccc1-c1cnn(C)c1 | > 6.60 |  | 
COc1cc(N2CCN(C)CC2)c(F)cc1Nc1ncc2ccn(C[C@H]3CCCO3)c2n1 | > 6.60 |  | 
COc1cc(N2CCN(C)CC2)c(F)cc1Nc1ncc2ccn(CC3CCOCC3)c2n1 | > 6.60 |  | pEC50 (UKE1; UKE1, UKE1): < 5.00; pEC50 (MDA-MB-231; [3]): < 5.00
COc1cc(N2CCN(C)CC2)c(F)cc1Nc1ncc2ccn(-c3cccc(NS(=O)(=O)C(C)C)c3)c2n1 | > 6.60 | 4.8 | pEC50 (UKE1; UKE1, UKE1): 6.03; pEC50 (MDA-MB-231; [3]): 5.80
CC(C)Oc1cc(Nc2ncc3ccn(C[C@H]4CCCO4)c3n2)ccc1N1CCN(C)CC1 | > 6.60 | 5.3 | pEC50 (UKE1; UKE1, UKE1): 6.00; pEC50 (MDA-MB-231; [3]): 5.96
CN1CCN(c2ccc(Nc3ncc4ccn(C[C@H]5CCCO5)c4n3)cc2F)CC1 | > 6.60 |  | 
COc1cc(N2CCN(C)CC2)c(F)cc1Nc1ncc2ccn(CC3CCCO3)c2n1 (stereo not drawn) | > 6.60 |  | 
CC(C)S(=O)(=O)Nc1cccc(-n2ccc3cnc(Nc4ccc(N5CCN(C)CC5)c(F)c4)nc32)c1 | > 6.60 | 4.5 | pEC50 (UKE1; UKE1, UKE1): 7.13; pEC50 (MDA-MB-231; [3]): 6.34
COc1cc(N2CCN(C)CC2)c(F)cc1Nc1ncc2ccn(CCc3ccccc3)c2n1 | > 6.60 |  | 
CC(C)Oc1cc(N2CCN(C)CC2)ccc1Nc1ncc2ccn(CCc3ccccc3)c2n1 | > 6.00 |  | 
COc1cc(N2CCN(C)CC2)c(F)cc1Nc1ncc2ccn(CCc3ccc(F)cc3)c2n1 | > 6.60 |  | 
COc1ccccc1CCn1ccc2cnc(Nc3cc(F)c(N4CCN(C)CC4)cc3OC)nc21 | > 6.60 |  | 
COc1cc(N2CCN(C)CC2)c(F)cc1Nc1ncc2ccn(CCc3ccccc3Cl)c2n1 | > 6.60 |  | 

SMILES | pIC50 (ACK1 [1]) | DSF (ΔTm (° C.)) (ACK1 [2]) [°C] | also measured
COc1cc(N2CCN(C)CC2)c(F)cc1Nc1ncc2ccn(-c3cccc(N4CCCS4(=O)=O)c3)c2n1 | > 6.60 |  | 
CN1CCN(c2ccc(Nc3ncc4ccn(-c5cccc(N6CCCS6(=O)=O)c5)c4n3)cc2F)CC1 | > 6.60 |  | pEC50 (UKE1; UKE1, UKE1): 7.26; pEC50 (MDA-MB-231; [3]): 6.08
COc1cc(N2CCN(C)CC2)c(F)cc1Nc1ncc2ccn(-c3ccc(N4CCCS4(=O)=O)cc3)c2n1 | > 6.60 | 5.2 | pEC50 (UKE1; UKE1, UKE1): 5.85; pEC50 (MDA-MB-231; [3]): 5.40
CN1CCN(c2ccc(Nc3ncc4ccn(CC5CCOCC5)c4n3)cc2F)CC1 | > 6.60 |  | 
CC(C)S(=O)(=O)Nc1cccc(-n2ccc3cnc(Nc4cc(F)c(N5CCN(C)CC5)cc4Cl)nc32)c1 | > 6.60 |  | 
CN1CCN(c2cc(Cl)c(Nc3ncc4ccn(CC5CCCO5)c4n3)cc2F)CC1 (stereo not drawn) | > 6.60 |  | 
CN1CCN(c2cc(Cl)c(Nc3ncc4ccn(CC5CCOCC5)c4n3)cc2F)CC1 | > 6.60 | 6.4 | 
COc1cc(N2CCN(C)CC2)c(F)cc1Nc1ncc2ccn(-c3cccc(N4CCCCS4(=O)=O)c3)c2n1 | > 6.60 |  | pEC50 (UKE1; UKE1, UKE1): 5.89; pEC50 (MDA-MB-231; [3]): 5.47
CN1CCN(c2cc(Cl)c(Nc3ncc4ccn(-c5cccc(N6CCCCS6(=O)=O)c5)c4n3)cc2F)CC1 | > 6.60 |  | 
COc1cc(N2CCN(C)CC2)ccc1Nc1ncc2ccn(-c3cccc(NS(=O)(=O)C(C)C)c3)c2n1 | > 6.60 | 7.6 | pEC50 (UKE1; UKE1, UKE1): 5.57; pEC50 (MDA-MB-231; [3]): 5.29
COc1c(Nc2ncc3ccn(-c4ccc(NS(=O)(=O)C(C)C)cc4)c3n2)cc(F)c(N2CCN(C)CC2)c1F | > 6.60 |  | 
COc1c(Nc2ncc3ccn(CC4CCOCC4)c3n2)cc(F)c(N2CCN(C)CC2)c1F | < 6.00 |  | 
Cc1cc(N2CCN(C)CC2)c(F)cc1Nc1ncc2ccn(-c3cccc(N4CCCCS4(=O)=O)c3)c2n1 |  | 6.2 | 
CC(C)S(=O)(=O)Nc1ccc(-n2ccc3cnc(Nc4ccc(N5CCN(C)CC5)c(OCCO)c4)nc32)cc1 |  | 5.3 | 
COc1cc(N2CCN(C)CC2)c(F)cc1Nc1ncc2ccn(-c3ccc(NS(=O)(=O)C(C)C)cc3)c2n1 |  | 9.3 | 
CC(C)S(=O)(=O)Nc1ccc(-n2ccc3cnc(Nc4ccc(N5CCN(C)CC5)c(F)c4)nc32)cc1 |  | 6.1 | 
COc1cc(N2CCN(C)CC2)ccc1Nc1ncc2ccn(-c3ccc(NS(=O)(=O)C(C)C)cc3)c2n1 |  | 6.5 | 
Cc1cc(N2CCN(C)CC2)c(F)cc1Nc1ncc2ccn(-c3ccc(NS(=O)(=O)C(C)C)cc3)c2n1 |  | 7.3 | 
COc1cc(N2CCN(C)CC2)c(F)cc1Nc1ncc2ccn(-c3ccc(S(=O)(=O)NC(C)C)cc3)c2n1 |  | 4.4 | 
COc1cc(N2CCN(C)CC2)ccc1Nc1ncc2ccn(-c3ccc(S(=O)(=O)NC(C)C)cc3)c2n1 |  | 8.1 | 
Cc1cc(N2CCN(C)CC2)c(F)cc1Nc1ncc2ccn(-c3ccc(S(=O)(=O)NC(C)C)cc3)c2n1 |  | 7.7 | 
CN1CCN(c2ccc(Nc3ncc4ccn(-c5ccc(N6CCCS6(=O)=O)cc5)c4n3)cc2F)CC1 |  | 5.6 | 
